Reference: PubChem BioAssay (NCI)
Where “and” joins values, the source holds several entries; their conditions need not be identical. Equal values may be shown once.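 48-hour exposure; five concentrations; linearly interpolated endpoints. At the GI50, growth is halved. Definition used: TGI = concentration required for complete inhibition of growth.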 Where a SMILES comes first, the peptide text is derived from it. [ ]: non-standard residue; d: D form. The star is where a group is joined. ξ: configuration not given here. X6 = FC(F)(F)c1cc(NC(=S)*)cc(C(F)(F)F)c1; ξF = NC(Cc1ccccc1)C(=O)O

Columns and labels:
Assay in all cases: inhibition of tumour cell growth, NCI panel, 48 h
COLO 205 colon = test system: COLO 205 colon
MDA-MB-231 breast = test system: MDA-MB-231 breast
NCI-H23 lung = test system: NCI-H23 lung
NCI/ADR-RES ovarian = test system: NCI/ADR-RES ovarian
SF-268 CNS = test system: SF-268 CNS
SF-539 CNS = test system: SF-539 CNS
SNB-75 CNS = test system: SNB-75 CNS
UO-31 renal = test system: UO-31 renal
A549 NSCLC = test system: A549 NSCLC
KM12 colon = test system: KM12 colon

Structure (SMILES)	GI50 (COLO 205 colon)	TGI (COLO 205 colon)	GI50 (MDA-MB-231 breast)	TGI (MDA-MB-231 breast)	GI50 (NCI-H23 lung)	TGI (NCI-H23 lung)	GI50 (NCI/ADR-RES ovarian)	TGI (NCI/ADR-RES ovarian)	GI50 (SF-268 CNS)	TGI (SF-268 CNS)	GI50 (SF-539 CNS)	TGI (SF-539 CNS)	GI50 (SNB-75 CNS)	TGI (SNB-75 CNS)	GI50 (UO-31 renal)	TGI (UO-31 renal)	GI50 (A549 NSCLC)	TGI (A549 NSCLC)	GI50 (KM12 colon)	TGI (KM12 colon)
Cn1c2ccccc2c2c(Nc3ccccc3)c3ccccc3nc21	59000 nM	> 100 µM	2750 nM	22.9 µM	31.4 µM	67.4 µM	54100 nM	> 100 µM	19200 nM	53 µM	12100 nM	28.6 µM	26500 nM	> 100 µM	51800 nM	> 100 µM	–	–	–	–
CO[C@H](C(=O)[C@@H](O)[C@@H](C)O)[C@@H]1Cc2cc3cc(O[C@H]4C[C@@H](O[C@H]5C[C@@H](O)[C@H](O)C(C)O5)[C@H](O)C(C)O4)c(C)c(O)c3c(O)c2C(=O)[C@H]1O[C@H]1C[C@@H](O[C@H]2C[C@@H](O[C@H]3C[C@](C)(O)C(=O)C(C)O3)[C@@H](O)C(C)O2)[C@H](O)C(C)O1 (stereo partly drawn)	53 nM	0.459 µM	145 nM	9.97 µM	0.0771 µM	1.07 µM	15300 nM	> 33.2 µM	65 nM	> 33.2 µM	47.3 nM	0.224 µM	45 nM	0.211 µM	159 nM	1.6 µM	0.106 µM	> 33.2 µM	67.2 nM	6.67 µM
CC[C@@]1(O)C[C@H](OC2CC(N(C)C)C(O)C(C)O2)c2c(O)c3c(c(O)c2[C@H]1OC1CC(N(C)C)C(O)C(C)O1)C(=O)c1cccc(O)c1C3=O (stereo partly drawn)	< 10 nM	0.149 µM and 0.0297 µM	< 10 nM	–	< 0.01 µM	–	< 10 nM	0.842 µM and 0.334 µM	< 10 nM	–	< 10 nM	0.212 µM and 0.183 µM	< 10 nM	–	< 10 nM	–	–	–	< 10 nM	–
C=C(CN1CCN(c2ccc(Cl)cc2F)CC1)c1ccc(C(=O)Nc2ccccc2N)cc1	16700 nM	> 95.3 µM	536 nM	3.64 µM	3.13 µM	> 100 µM	1970 nM	5.5 µM	2610 nM	> 100 µM	2020 nM	> 52.8 µM	11400 nM	> 46.1 µM	1100 nM	> 25.1 µM	2.56 µM	> 30.5 µM	2260 nM	> 59.7 µM
Nc1ccccc1SC(C[N+](=O)[O-])c1ccc2c(c1)OCO2 (stereo not drawn)	–	13.7 µM	–	20 µM	–	8.04 µM	–	73 µM	–	20.7 µM	–	4.98 µM	–	7.09 µM	–	3.32 µM	–	8.68 µM	–	6.31 µM
NC(=O)c1sc(-n2cnc3ccccc32)cc1OCc1ccccc1Br	1580 nM	23.2 µM	4960 nM	> 25 µM	4.03 µM	> 25 µM	869 nM	> 25 µM	4980 nM	> 25 µM	5470 nM	> 25 µM	10200 nM	> 25 µM	15400 nM	> 25 µM	6.06 µM	> 25 µM	1260 nM	> 25 µM
Clc1ccc2c(NCCCCNc3nc(N4CCCCC4)nc4ccccc34)ccnc2c1	1640 nM	3.59 µM	1750 nM	4.28 µM	4.67 µM	19.2 µM	2680 nM	9.18 µM	1840 nM	7.56 µM	1490 nM	2.97 µM	1320 nM	3.13 µM	1470 nM	3.05 µM	3.15 µM	10.3 µM	3400 nM	13.1 µM
O=C1/C(=C/c2cccc([N+](=O)[O-])c2)COc2ccc(O)cc21	1580 nM	3.27 µM	2070 nM	4.75 µM	2.02 µM	4.64 µM	2930 nM	10.8 µM	2860 nM	10.3 µM	1870 nM	3.73 µM	2630 nM	14.9 µM	1510 nM	2.93 µM	4.66 µM	16.8 µM	1680 nM	3.32 µM
CCCCCN(CCCCC)CC(O)c1cc(C)c2ccc3cc(C(C)C)ccc3c2c1 (stereo not drawn)	2080 nM	4.22 µM	1790 nM	3.77 µM	1.77 µM	3.4 µM	2160 nM	4.61 µM	2140 nM	4.26 µM	1790 nM	3.36 µM	1310 nM	2.65 µM	1480 nM	2.99 µM	2.61 µM	5.58 µM	1800 nM	3.36 µM
c1ccc2cc(-c3cc(-c4cc(-c5ccc6ccccc6c5)on4)no3)ccc2c1	–	> 100 µM	–	> 100 µM	–	> 100 µM	–	> 100 µM	–	> 100 µM	–	> 100 µM	–	> 100 µM	–	> 100 µM	–	> 100 µM	–	> 100 µM
NC(=O)c1cccc2cn(-c3ccc([C@@H]4CCCNC4)cc3)nc12	13500 nM	28.6 µM	11700 nM	31.2 µM	11.3 µM	45 µM	19500 nM	> 74.5 µM	9130 nM	28.5 µM	6720 nM	20.4 µM	11800 nM	25.5 µM	11300 nM	25.2 µM	13.1 µM	28 µM	15700 nM	30.6 µM
COC(=O)[C@@H](NC(=O)CNC(=O)[C@H]1CCCN1C(=O)C(Cc1ccccc1)NC(=S)Nc1cc(C(F)(F)F)cc(C(F)(F)F)c1)C(C)C (stereo partly drawn) (X6-[ξF][dP]GV-OMe)	1870 nM	3.32 µM	1480 nM	3.14 µM	2.53 µM	8.02 µM	3470 nM	43.3 µM	2980 nM	10.7 µM	2060 nM	3.94 µM	1520 nM	3.49 µM	2910 nM	13.9 µM	3.03 µM	14.4 µM	2880 nM	7.75 µM
COc1ccc(C(=O)Cn2c(C(=O)c3ccccc3)nc(-c3ccc(OC)cc3)c2-c2ccc(OC)cc2)cc1	> 100000 nM	> 100 µM	64300 nM	> 100 µM	> 100 µM	> 100 µM	> 100000 nM	> 100 µM	86400 nM	> 100 µM	31500 nM	> 100 µM	7710 nM	38.4 µM	> 100000 nM	> 100 µM	> 100 µM	> 100 µM	> 100000 nM	> 100 µM
